Laboratory results from patent publication EP0111413A1, “Novel sulfone, process for its preparation, composition containing it and use thereof” (priority 1982, dated 1984).

Tests used:
Pseudomonas aeruginosa = assay: Minimum Inhibitory Concentration test in nutrient broth (bacterial); assay type: cell-based; parameters: key: + = Growth; - = No Growth
Procedure: (§1) A Minimum Inhibitory Concentration test with bacteria and fungus was performed in nutrient broth. The test compound was added to sterile broth at 0.1% (1000PPM) and diluted sequentially with sterile broth to yield required levels. One drop of an actively-growing 24-hour culture was added to each level and incubated for a period of 24 hours at a temperature of 30°C. At the end of the time period, an aliquot from each tube was placed on nutrient agar and observed for growth.

Alternaria solani = assay: Minimum Inhibitory Concentration test in nutrient broth (fungal); assay type: cell-based; parameters: key: + = Growth; - = No Growth
Procedure: as §1

Mustard = assay: Postemergence herbicidal test; assay type: in vivo, Brassica sp.; settings: Application rate 4.0 lb/A, postemergence spray, rated visually nineteen days later
Description: (§2) Aluminum planting flats measuring 15.2 x 22.9 x 8.9 cm were filled to a depth of 7.6 cm with loamy sand soil, containing 50 parts per million (ppm) each of the commercial fungicide cis-N(trichloromethyl)thio -4-cyclohexane-l,2-dicarboximide (Captan®) and 17-17-17 fertilizer (percentages of N-P2O5-K2O) on a weight basis). Several rows were impressed across the width of each flat and a variety of seeds of both grass and broadleaf weed species were planted, one species per row. The weed species used are listed below:
(§3) The broad leaf species were seeded first, and the grasses were seeded four days later. Ample seeds of each species were planted to produce 20 to 50 seedlings per row after emergence, depending on the size of each plant.
(§4) Ten days after the grasses were seeded, the emerged seedlings of all species were sprayed with aqueous solutions of the test compounds. The solutions were prepared to such dilutions that a spray rate of 80 gallons per acre (750 liters per hectare) gave from 0.5 to 4.0 pounds of test compound per acre (0.56 to 4.48 kilograms per hectare) as desired for each test. Additional flats not treated at all were used as standards for measuring the extent of weed control in the treated flats. […]

Foxtail = assay: Postemergence herbicidal test; assay type: in vivo, Setaria sp.; settings: Application rate 4.0 lb/A, postemergence spray, rated visually nineteen days later
Description: as §2, §3, §4

Velvetleaf = assay: Postemergence herbicidal test; assay type: in vivo, Abutilon theophrasti; settings: Application rate 4.0 lb/A, postemergence spray, rated visually nineteen days later
Description: as §2, §3, §4

Annual morning glory = assay: Postemergence herbicidal test; assay type: in vivo, Ipomoea purpurea; settings: Application rate 4.0 lb/A, postemergence spray, rated visually nineteen days later
Description: as §2, §3, §4

Wild oat = assay: Postemergence herbicidal test; assay type: in vivo, Avena fatua; settings: Application rate 4.0 lb/A, postemergence spray, rated visually nineteen days later
Description: as §2, §3, §4

Watergrass = assay: Postemergence herbicidal test; assay type: in vivo, Echinochloa crusgalli; settings: Application rate 4.0 lb/A, postemergence spray, rated visually nineteen days later
Description: as §2, §3, §4

[1] = 62.5 PPM, buffered to pH 6.8, 24 hours at 30°C
[2] = 62.5 PPM, pH 4, 24 hours at 30°C
[3] = 125 PPM, buffered to pH 6.8, 24 hours at 30°C
[4] = 125 PPM, pH 4, 24 hours at 30°C
[5] = 250 PPM, buffered to pH 6.8, 24 hours at 30°C
[6] = 250 PPM, pH 4, 24 hours at 30°C
[7] = 500 PPM, buffered to pH 6.8, 24 hours at 30°C
[8] = 500 PPM, pH 4, 24 hours at 30°C
[9] = 1000 PPM, buffered to pH 6.8, 24 hours at 30°C
[10] = 1000 PPM, pH 4, 24 hours at 30°C

CS(=O)(=O)CC(Cl)C#N (centres unmarked) [Compound 1, 3-(methylsulfonyl)-2-chloropropanenitrile]
40%: Percent Control E (Mustard)
-: Growth (Pseudomonas aeruginosa; [1]) | Growth (Pseudomonas aeruginosa; [2]) | Growth (Pseudomonas aeruginosa; [3]) | Growth (Pseudomonas aeruginosa; [4]) | Growth (Pseudomonas aeruginosa; [5]) | Growth (Pseudomonas aeruginosa; [6]) | Growth (Pseudomonas aeruginosa; [7]) | Growth (Pseudomonas aeruginosa; [8]) | Growth (Pseudomonas aeruginosa; [9]) | Growth (Pseudomonas aeruginosa; [10]) | Growth (Alternaria solani; [4]) | Growth (Alternaria solani; [5]) | Growth (Alternaria solani; [6]) | Growth (Alternaria solani; [7]) | Growth (Alternaria solani; [8]) | Growth (Alternaria solani; [9]) | Growth (Alternaria solani; [10])
75%: Percent Control J (Foxtail) | Percent Control D (Velvetleaf) | Percent Control A (Annual morning glory)
30%: Percent Control N (Wild oat)
65%: Percent Control L (Watergrass)
+: Growth (Alternaria solani; [1]) | Growth (Alternaria solani; [2]) | Growth (Alternaria solani; [3])
